Assay results: patent publication US20260125347A1, “l,2-SUBSTITUTED 3-OXOPYRAZOLIDINE DERIVATIVES AS PROSTAGLANDIN E2 RECEPTOR 4 (EP4) AGONISTS FOR THE TREATMENT OF GASTROINTESTINAL AND PULMONARY DISEASES” (NXERA PHARMA UK LIMITED, priority 2022, published 2026)

What was measured:
[1] = target: T1, human EP4 (Homo sapiens, UniProt P35408); assay: cAMP Gs functional assay (HTRF cAMP dynamic-2) in HEK293 cells transfected with EP4 Bacmam virus; assay type: cell-based; conditions: for Emax: HEK293, HEK293 cells expressing human EP4; for Emax / cAMP human EP4 Emax: positive control 10 μM PGE2; for EC50: HEK293 cells expressing human EP4, 30 mins at 37° C., mid-point of the curve, read-out: cAMP human EP4 pEC50 (converted); for cAMP human EP4 Emax: HEK293 cells expressing human EP4, unit assumed
T1 construct: expressed in transfected cells; host or cells: HEK293 cells transduced with EP4 BacMam virus (virus generated in SF9 cells)
Procedure: Cloning, Baculovirus generation, large scale infection of HEK293 cells and membrane preparation: Human prostaglandin E2 receptor 4 (EP4) was cloned into pBacMam expression vector (GeneScript, UK). Transposition of EP4 DNA was performed using Invitrogen's Bac-to-Bac Baculovirus Expression Systems. P0 baculovirus was generated by transfecting SF9 Cells with bacmid DNA using Cellfectin II transfection reagent (ThermoFisher Scientific, UK). Following P0 generation P1 virus was then generated ready for large scale infection and membrane preparation. HEK293 cells were grown in DMEM (ThermoFisher Scientific, UK), supplemented with 10% heat inactivated fetal bovine serum (FBS). Cells were infected at a seeding density of 3.5 million cells/mL in 500 cm^3 flasks at 5% v/v EP4 Bacman. Expression was carried out over a 36 hr period at 37° C. with 5% CO2. The cells were removed using PBS and a cell scrapper. The cell culture was centrifuged at 2500 RPM for 10 mins at 4° C. The supernatant was then poured off and the pellet stored at −80° C. The pellet was defrosted and re-suspended in 15 mL of homogenising buffer (20 mM HEPES, 10 mM EDTA, pH 7.4). Then homogenised in mechanical homogeniser (VMR) for 10 seconds. The membrane was centrifuged in centrifuge tubes at 40,000 g for 15 mins at 4° C. The supernatant was poured away and re-suspended in 15 mL of homogenising buffer. Homogenised for 20 seconds. The membrane was centrifuged at 40,000 g for 45 mins at 4° C. The membrane was re-suspended in 3 mL of storage buffer (20 mM HEPES, 0.1 mM EDTA, pH 7.4) mixing well. The resulting membranes were then stored at −80° C. cAMP Gs Functional Assay: CAMP production following EP4 receptor activation was determined using the Homogeneous Time-Resolved Fluorescence (HTRF) CAMP dynamic-2 assay (Cisbio, France). HEK293 cells were transfected using a 0.5% EP4 Bacmam virus for 36 hours, before dissociating the cells, and freezing at −150° C. On the day of testing, increasing concentration of test compounds, alongside positive controls (10 μM PGE2 (Tocris, Abingdon, UK)) and negative control (DMSO (Sigma-Aldrich, UK) were added to a ProxiPlate-384 Plus, White 384-shallow well Mircoplate, (PerkinElmer, USA) using the ECHO dispense. Cells were defrosted in a water bath and resuspended in DMEM supplemented with 10% FBS before centrifuging at 1200 RPM for 5 mins to form a pellet. The pellet was resuspended in assay buffer (DMEM+0.5 mM IBMX (Tocris, Abingdon, UK)) to 0.5×10^6 cells/mL. Cell suspension, for a final assay concentration of 5000 cell/well was added using the multidrop to the pre-dispensed assay plate. The plate was then incubated at 37° C. for 30 mins, with 5% CO2. The CAMP production was determined as manufacturer's instructions, before plates were read on a PheraStar fluorescence plate reader (BMG LabTech, Germany).

[2] = Unidirectional Caco-2 cell permeability assay; assay type: in vitro ADME; conditions: human, Caco-2, 10 μM, apical pH 6.5, basolateral pH 7.4, 1 hour, 37° C., n=2
Procedure: (§1) Caco-2 cells (ECACC) were seeded onto 24-well Transwell plates at 2×10^5 cells per well and used in confluent monolayers after a 21 day culture at 37° C. under 5% CO2. Test compounds were incubated at 10 μM, 0.2% DMSO final, n=2 in assay buffer (Hanks balanced salt solution supplemented with 25 mM HEPES, adjusted to pH 6.5). Hanks balanced salt solution supplemented with 25 mM HEPES, adjusted to pH 7.4 (0.2% DMSO final) was used for the basolateral chamber (as receiver).
(§2) Incubations were performed at 37° C., with samples removed from both donor and acceptor chambers at T=0 and 1 hour and compound analysed by mass spectrometry (LC-MS/MS) including an analytical internal standard (0.5 μM carbamazepine).
(§3) Apparent permeability (Papp) values are shown in Table 3 and were determined from the relationship:
(§4) Where V is the volume of each Transwell compartment (apical 125 μL, basolateral 600 μL), and concentrations are the relative MS responses for compound (normalized to internal standard) in the donor chamber before incubation and acceptor chamber at the end of the incubation Area=area of cells exposed for drug transfer (0.33 cm^2).
(§5) Lucifer Yellow (LY) was added to the apical buffer in all wells to assess viability of the cell layer. As LY cannot freely permeate lipophilic barriers, a high degree of LY transport indicates poor integrity of the cell layer and wells with a LY Papp>10×10^6 cm/s were rejected.
(§6) Compound recovery from the wells was determined from MS responses (normalized to internal standard) in donor and acceptor chambers at the end of incubation compared to response in the donor chamber pre-incubation.

[3] = test system: Caco-2 cells; assay: Unidirectional Caco-2 cell permeability assay; assay type: in vitro ADME; conditions: 10 μM, apical pH 6.5, basolateral pH 7.4, 1 hour, 37° C., n=2
Procedure: as §1, §2, §3, §4, §5, §6

T1 sequence (P35408 whole entry): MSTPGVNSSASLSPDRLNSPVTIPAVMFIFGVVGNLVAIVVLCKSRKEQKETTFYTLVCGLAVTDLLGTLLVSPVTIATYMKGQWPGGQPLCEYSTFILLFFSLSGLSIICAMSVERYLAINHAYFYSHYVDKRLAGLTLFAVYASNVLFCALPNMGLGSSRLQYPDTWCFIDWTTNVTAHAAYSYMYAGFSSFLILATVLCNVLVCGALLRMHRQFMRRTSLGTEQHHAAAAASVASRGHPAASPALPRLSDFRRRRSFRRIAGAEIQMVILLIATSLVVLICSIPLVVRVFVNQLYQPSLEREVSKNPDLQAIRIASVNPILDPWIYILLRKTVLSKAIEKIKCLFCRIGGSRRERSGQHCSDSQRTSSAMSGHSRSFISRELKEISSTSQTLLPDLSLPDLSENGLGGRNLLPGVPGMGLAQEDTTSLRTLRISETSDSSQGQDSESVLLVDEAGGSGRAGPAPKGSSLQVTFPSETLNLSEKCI

Emax [1] [%] | EC50 [1] [nM] | Papp A→B at 1 h, 10 μM [2] [×10⁻⁶ cm/s] | cAMP human EP4 Emax [1] [%] | Caco-2 Mean Papp A-B [3] | Compound
97 | 2.51 | 0.3 | – | – | Cc1cc(S(N)(=O)=O)ccc1-c1cccc(C(O)CCN2CCC(=O)N2CCc2ccc(C(=O)O)cc2)c1 (racemic) [3; racemate]
97 | 50.1 | – | – | – | Cc1cc(C(N)=O)ccc1-c1cccc(C(O)CCN2CCC(=O)N2CCc2cc(F)c(C(=O)O)c(F)c2)c1 (racemic) [5; racemate]
93 | 39.8 | – | – | 0.23 10^−6 cm/s | Cc1cc(S(N)(=O)=O)ccc1-c1cccc(C(O)CCN2CCC(=O)N2CCc2ccc(C(=O)O)cc2)c1 (single isomer, unassigned) [3; isomer 1]
– | 1.26 | – | 98 | 0.72 10^−6 cm/s | Cc1cc(S(N)(=O)=O)ccc1-c1cccc(C(O)CCN2CCC(=O)N2CCc2ccc(C(=O)O)cc2)c1 (single isomer, unassigned) [3; isomer 2]
– | 2.51 | – | 97 | 0.67 10^−6 cm/s | Cc1cc(OS(N)(=O)=O)ccc1-c1cccc(C(O)CCN2CCC(=O)N2CCc2ccc(C(=O)O)cc2)c1 (single isomer, unassigned) [4; isomer 2]
88 | 794 | – | – | – | Cc1cc(C(N)=O)ccc1-c1cccc(C(O)CCN2CCC(=O)N2CCc2cc(F)c(C(=O)O)c(F)c2)c1 (single isomer, unassigned) [5; isomer 1]
– | 15.8 | < 0.1 | 96 | – | Cc1cc(C(N)=O)ccc1-c1cccc(C(O)CCN2CCC(=O)N2CCc2cc(F)c(C(=O)O)c(F)c2)c1 (single isomer, unassigned) [5; isomer 2]
97 | 3.98 | < 0.1 | – | – | Cc1cc(S(N)(=O)=O)ccc1-c1cccc(C(O)CCN2CCC(=O)N2CCc2ccc(C(=O)O)c(O)c2)c1 (single isomer, unassigned) [6; isomer 1]
– | 50.1 | – | 96 | – | Cc1cc(S(N)(=O)=O)ccc1-c1cccc(C(O)CCN2CCC(=O)N2CCc2ccc(C(=O)O)c(O)c2)c1 (single isomer, unassigned) [6; isomer 2]
96 | 2510 | – | – | – | Cc1cc(S(N)(=O)=O)ccc1-c1cccc(C(O)CCN2CCC(=O)N2CCc2cc(F)c(C(=O)O)c(F)c2)c1 (single isomer, unassigned) [8; isomer 1]
– | 31.6 | < 0.3 | 99 | – | Cc1cc(S(N)(=O)=O)ccc1-c1cccc(C(O)CCN2CCC(=O)N2CCc2cc(F)c(C(=O)O)c(F)c2)c1 (single isomer, unassigned) [8; isomer 2]

Further lines, the compound ahead of its results:

Compound | Emax [1] [%] | EC50 [1] [nM] | Papp A→B at 1 h, 10 μM [2] [×10⁻⁶ cm/s] | cAMP human EP4 Emax [1] [%] | Caco-2 Mean Papp A-B [3]
Cc1cc(O)ccc1-c1cccc(C(O)CCN2CCC(=O)N2CCc2ccc(C(=O)O)cc2)c1 (racemic) [1; racemate] | 97 | 3.98 | 0.68 | – | –
Cc1cc(C(N)=O)ccc1-c1cccc(C(O)CCN2CCC(=O)N2CCc2ccc(C(=O)O)cc2)c1 (racemic) [2; racemate] | 99 | 3.16 | – | – | –
Cc1cc(OS(N)(=O)=O)ccc1-c1cccc(C(O)CCN2CCC(=O)N2CCc2ccc(C(=O)O)cc2)c1 (racemic) [4; racemate] | 97 | 6.31 | – | – | –
Cc1cc(C(N)=O)ccc1-c1cccc(C(O)CCN2CCC(=O)N2CCc2ccc(-c3nnn[nH]3)cc2)c1 (racemic) [9; racemate] | 97 | 0.158 | < 0.1 | – | –
Cc1cc(O)ccc1-c1cccc(C(O)CCN2CCC(=O)N2CCc2ccc(C(=O)O)cc2)c1 (single isomer, unassigned) [1; isomer 1] | 97 | 50.1 | 0.86 | – | –
Cc1cc(O)ccc1-c1cccc(C(O)CCN2CCC(=O)N2CCc2ccc(C(=O)O)cc2)c1 (single isomer, unassigned) [1; isomer 2] | – | 2 | – | 99 | –
Cc1cc(C(N)=O)ccc1-c1cccc(C(O)CCN2CCC(=O)N2CCc2ccc(C(=O)O)cc2)c1 (single isomer, unassigned) [2; isomer 1] | 95 | 158 | < 0.29 | – | –
Cc1cc(C(N)=O)ccc1-c1cccc(C(O)CCN2CCC(=O)N2CCc2ccc(C(=O)O)cc2)c1 (single isomer, unassigned) [2; isomer 2] | – | 0.501 | – | 98 | <0.47 10^−6 cm/s
Cc1cc(OS(N)(=O)=O)ccc1-c1cccc(C(O)CCN2CCC(=O)N2CCc2ccc(C(=O)O)cc2)c1 (single isomer, unassigned) [4; isomer 1] | 93 | 251 | – | – | 0.3 10^−6 cm/s
Cc1cc(C(N)=O)ccc1-c1cccc(C(O)CCN2CCC(=O)N2CCc2ccc(C(=O)O)c(O)c2)c1 (single isomer, unassigned) [7; isomer 1] | 99 | 3.98 | < 0.1 | – | –
Cc1cc(C(N)=O)ccc1-c1cccc(C(O)CCN2CCC(=O)N2CCc2ccc(C(=O)O)c(O)c2)c1 (single isomer, unassigned) [7; isomer 2] | – | 100 | – | 97 | <0.1 10^−6 cm/s
Cc1cc(C(N)=O)ccc1-c1cccc(C(O)CCN2CCC(=O)N2CCc2ccc(-c3nnn[nH]3)cc2)c1 (single isomer, unassigned) [9; isomer 1] | 93 | 39.8 | – | – | –
Cc1cc(C(N)=O)ccc1-c1cccc(C(O)CCN2CCC(=O)N2CCc2ccc(-c3nnn[nH]3)cc2)c1 (single isomer, unassigned) [9; isomer 2] | – | 0.251 | < 0.1 | 96 | –
